Measurements as given in US8318741B2, “Therapeutic compositions and methods” (The Texas A & M University System, priority 2005, dated 2012).
Like-named read-outs stand apart in the source and are kept apart here. Marks after values point to notes of the source that are not given here.

Assays:
[1] = test system: trabeculectomy failure caused by inflammation; set-up: species or system Dutch Belted rabbits; settings: rabbit, in vivo
guinea pigs = settings: known before the Draize test; cited from earlier work
[2] = test system: carrageenin induced inflammation; assay: Carrageenin-induced inflammation (paw edema); type: in vivo, Sprague Dowley rats
Procedure: Forty female Sprague Dowley rats weighing 164±16 g were used for the experiments. The test and control groups were assigned randomly. Carrageenin (0.1 mL of 1% solution) was injected into the plantar surface of the rat hind paw to induce inflammation. Ten minutes before carrageenin injection, 8 mL of water administered ig. […] The changes in volume of the inflamed edematous foot were measured by the volume of water displaced and recorded at 0, 0.5, 1, 2, 4, and 6 h after the carrageenin injection.

mice = assay: LD50 determination / acute oral toxicity; type: in vivo
Procedure: LD50 determination: For each dose, 20 mice of either sex, weighing 18-20 g were used to determined the LD50 according to the method of Litchfield & Wilcoxon, J. Pharmacol. Exp. Ther. 96:99-113 (1949). Animals were housed in an animal room at 25° C. and 70% relative humidity. The light cycle was set for 12 h light and 12 h darkness.

[3] = test system: choroidal neovascularization in rat eyes
[4] = test system: ocular hypertensive rabbit eyes; assay: Choroidal blood flow in ocular hypertensive rabbit eyes (colored microspheres); type: in vivo, New Zealand white rabbits; settings: for Choroidal Blood Flow, 30 min / Choroidal Blood Flow, 60 min / Choroidal Blood Flow, 120 min / Choroidal Blood Flow, 180 min / Time after administration over which the action on choroidal blood flow lasted: 50 μl, 1% topically; for Choroidal Blood Flow, 30 min / Choroidal Blood Flow, 60 min / Choroidal Blood Flow, 120 min / Choroidal Blood Flow, 180 min: vehicle controls at 100%, mean ± SD, N = 6
rat eyes = assay: Retinal function recovery after ischemic insult in rat eyes (ERG b-wave); settings: 10 mg/kg ip; for Retinal Function Recovery After Ischemic Insult, Treated: Mean ± SD, N = 6; for Retinal Function Recovery, Net increase (%): treated versus control
IL-1 induced uveitis = assay: Interleukin-1 induced uveitis; type: in vivo, Sprague-Dawley rats; settings: 20 mg/kg t.i.d.
[5] = at various dose levels, AMD rat model
[6] = N-nitro-azoles and C-nitropyrazoles, 30 min
[7] = N-nitro-azoles and C-nitropyrazoles
[8] = N-Nitropyrazoles and C-Nitropyrazoles, b-wave recovery after 30 min ischemia
[9] = N-Nitropyrazoles and C-Nitropyrazoles
[10] = Flavonoids, 30 min after administration

Structure (SMILES): CC1(Br)CSC(=Nc2ccccc2)N(c2ccccc2)C1=O (stereo not shown) [CK-17, 5-bromo-5-methyl-3-phenyl-2-phenylimino-1,3-thiazinan-4-one]
- Delay of trabeculectomy failure [1]: prolonged the appearance of trabeculectomy failure
- Delay of trabeculectomy failure relative to prednisolone [1]: more effective than prednisolone
- Skin irritation (guinea pigs): did not produce skin irritation
- Potency relative to aspirin ([2]; carrageenin induced inflammation): about 10 times
- Inhibition of carrageenin induced inflammation ([2]; ip 3 times before carrageenin): very effective in inhibiting carrageenin induced inflammation
- Toxic response (mice; 20 g/kg given orally, observed at least 7 days): did not cause any toxic response
- LD50 equivalent for man (mice; orally, extrapolated to man): ≥ 1,400 g/70 kg
- Effective dose to inhibit CNV formation ([3]; rat, in vivo, ip): 30 mg/kg

Structure (SMILES): CC(C)(C)NC[C@@H](O)COc1nsnc1N1CCOCC1 [D-Timolol, (2R)-1-[(4-morpholin-4-yl-1,2,5-thiadiazol-3-yl)oxy]-3-(tert-butylamino)propan-2-ol]
- Inhibition of CNV formation ([3]; 15 mg/kg i.p. once a day for 4 weeks): effective in inhibiting some CNV formation but not as potent as hydralazine or guanabenz
- Inhibition of CNV formation [3, 5]: potent inhibition of CNV formation

Structure (SMILES): CONC(=O)c1ccn([N+](=O)[O-])n1 [DN-6, N-methoxy-1-nitro-1H-pyrazole-3-carboxamide]
- Choroidal Blood Flow, 30 min [4, 6]: 56.9 ± 17.5^e %
- Choroidal Blood Flow, 60 min [4, 7]: 61.8 ± 20.9 %
- Choroidal Blood Flow, 120 min [4, 7]: 88.3 ± 34.1 %
- Choroidal Blood Flow, 180 min [4, 7]: 128.5 ± 60.0 %
- Retinal Function Recovery After Ischemic Insult, Treated (rat eyes; [8]): 64.0 ± 24.9 %
- Retinal Function Recovery, Net increase (%) (rat eyes; [9]): 94.5%

Structure (SMILES): O=C(O)c1ccn([N+](=O)[O-])n1 [DN-7, 1-nitro-1H-pyrazole-3-carboxylic acid]
- Choroidal Blood Flow, 30 min [4, 6]: 42.0 ± 13.7%
- Choroidal Blood Flow, 60 min [4, 7]: 57.2 ± 3.7 %
- Choroidal Blood Flow, 120 min [4, 7]: 80.5 ± 23.1 %
- Choroidal Blood Flow, 180 min [4, 7]: 87.3 ± 29.6 %
- Retinal Function Recovery After Ischemic Insult, Treated (rat eyes; [8]): 71.4 ± 20.2 %
- Retinal Function Recovery, Net increase (%) (rat eyes; [9]): 117.0%

Structure (SMILES): NC(N)=NN=Cc1c(Cl)cccc1Cl [Guanabenz, 2-[(2,6-dichlorophenyl)methylideneamino]guanidine]
- Inhibition of CNV formation ([3]; 20 mg/kg i.p. once a day for 4 weeks, eight laser lesions): All eight CNV formations were inhibited
- Inhibition of CNV formation ([3]; 20 mg/kg i.p. once a day for 4 weeks, eight laser lesions, listed as guanabenz): inhibition of CNV formation
- Inhibition of CNV formation [3, 5]: potent inhibition of CNV formation

Structure (SMILES): NNc1nncc2ccccc12 [Hydralazine, phthalazin-1-ylhydrazine]
- Inhibition of CNV formation ([3]; 5 mg/kg i.p. once a day for 4 weeks, eight laser lesions): four out of eight
- Inhibition of CNV formation ([3]; 10 mg/kg i.p., eight laser lesions): inhibited all CNV formation effectively
- Inhibition of CNV formation ([3]; 10 mg/kg i.p., eight laser lesions, listed as hydralazine): inhibition of CNV formation
- Inhibition of CNV formation [3, 5]: potent inhibition of CNV formation

Structure (SMILES): O=C1CC(c2ccc(O)cc2)Oc2cc(O)cc(O)c21 (stereo not shown) [Naringenin, 5,7-dihydroxy-2-(4-hydroxyphenyl)chroman-4-one]
- Time after administration over which the action on choroidal blood flow lasted [4]: at least 2 hrs
- Choroidal Blood Flow, 30 min [4, 10]: 102.5 ± 22.0^e* %
- Choroidal Blood Flow, 60 min ([4]; Flavonoids): 226.1 ± 55.0 %
- Choroidal Blood Flow, 120 min ([4]; Flavonoids): 124.2 ± 74.5 %
- Choroidal Blood Flow, 180 min ([4]; Flavonoids): 137.4 ± 712%
- Onset / latent period of the increase of choroidal blood flow ([4]; after drug administration): 30 min
- Time of peak effect on choroidal blood flow ([4]; after drug administration): 60 min
- Increase of choroidal blood flow at the peak, of the original blood flow ([4]; at the peak (60 min after drug administration)): more than 200%
- Inhibition of CNV formation ([3]; 30 mg/kg i.p., eight laser lesions): marked inhibition of CNV formation
- Inhibition of CNV formation [3, 5]: potent inhibition of CNV formation
- Retinal Function Recovery After Ischemic Insult, Treated (rat eyes; Flavonoids, b-wave recovery relative to original level after 30 min ischemia): 54.0 ± 17.8 %
- Retinal Function Recovery, Net increase (%) (rat eyes; Flavonoids): 66.1%

Structure (SMILES): O=c1c(-c2ccc(O)cc2)coc2c([C@@H]3O[C@H](CO)[C@@H](O)[C@H](O)[C@H]3O)c(O)ccc12 [Puerarin]
- Time after administration over which the action on choroidal blood flow lasted [4]: > 3 h
- Choroidal Blood Flow, 30 min [4, 10]: 30.9 ± 7.7%
- Choroidal Blood Flow, 60 min ([4]; Flavonoids): 114.9 ± 21.5 %
- Choroidal Blood Flow, 120 min ([4]; Flavonoids): 160.8 ± 70.7 %
- Choroidal Blood Flow, 180 min ([4]; Flavonoids): 127.4 ± 65.5 %
- Start of action on choroidal blood flow ([4]; after administration): 1 h
- Retinal Function Recovery After Ischemic Insult, Treated (rat eyes; Flavonoids, b-wave recovery relative to original level after 30 min ischemia, 10 mg/kg): 90.0 ± 17.2 %
- Retinal Function Recovery After Ischemic Insult, Treated (rat eyes; Flavonoids, b-wave recovery relative to original level after 30 min ischemia, listed as puerarin, 10 mg/kg): 90%
- Retinal Function Recovery, Net increase (%) (rat eyes; Flavonoids): 190.3%

Structure (SMILES): C[C@]12C=CC(=O)C=C1CC[C@@H]1[C@@H]2[C@@H](O)C[C@@]2(C)[C@H]1CC[C@]2(O)C(=O)CO [prednisolone]
- Blockade of IL-1 induced uveitis (IL-1 induced uveitis): blocked effectively
- Minimal dose required to produce inhibition of CNV formation ([3]; i.p.): 3 mg/kg
